Source: patent US20230278972A1, “SUBSTITUTED HALOALKYL SULFONANILIDE HERBICIDES” (FMC Corporation, priority 2020, published 2023)

Experiments:
Format in all cases: in vivo
soybean (Glycine max) [1] = assay: Test A1 postemergence, soybean; conditions: Postemergence
In short: (§1)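 Both timings started from seed in a loam-sand blend. Preemergence pots got a directed soil application immediately; postemergence pots were sprayed when seedlings had one or two leaves and stood 2–10 cm. Each compound was prepared in a non-phytotoxic solvent plus surfactant.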

[2] = tested on: Ryegrass, Italian (Italian ryegrass, Lolium multiflorum); assay: Test A1 preemergence, Ryegrass, Italian
In short: (§2)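 Test compounds were formulated in a non-phytotoxic solvent mixture containing a surfactant. For preemergence, seeds sown in a loam soil–sand blend received a directed soil spray. For postemergence, potted plants in the same soil, 2 to 10 cm tall at the one- to two-leaf stage, were sprayed.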

[3] = tested on: Oat, Wild (wild oat, Avena fatua); assay: Test A1 preemergence, Oat, Wild
In short: as §2

[4] = tested on: galium (catchweed bedstraw, Galium aparine); assay: Test A1 postemergence, galium; conditions: Postemergence
In short: as §1

[5] = tested on: Foxtail, Giant (giant foxtail, Setaria faberi); assay: Test A1 postemergence, Foxtail, Giant; conditions: Postemergence
In short: as §1

[6] = tested on: horseweed (Erigeron canadensis); assay: Test A1 postemergence, horseweed; conditions: Postemergence
Text: (§3) Seeds of plant species selected from, blackgrass (Alopecurus myosuroides), corn (Zea mays), Foxtail, Giant (giant foxtail, Setaria faberi), goosegrass (Eleusine indica), kochia (Bassia scoparia), Oat, Wild (wild oat, Avena fatua), Pigweed, Palmer (palmer amaranth, palmer pigweed, Amaranthus palmeri), ragweed (common ragweed, Ambrosia artemisiifolia), Ryegrass, Italian (Italian ryegrass, Lolium multiflorum), soybean (Glycine max), and wheat (Triticum aestivum) were planted into a blend of loam soil and sand and treated preemergence with a directed soil spray using test chemicals formulated in a non-phytotoxic solvent mixture which included a surfactant. At the same time, plants selected from these crop and weed species and also galium (catchweed bedstraw, Galium aparine) and horseweed (Erigeron canadensis) were planted in pots containing the same blend of loam soil and sand and treated with postemergence applications of test chemicals formulated in the same manner. Plants ranged in height from 2 to 10 cm and were in the one- to two-leaf stage for the postemergence treatment. […] A dash (-) response means no test result.

[7] = tested on: blackgrass (Alopecurus myosuroides); assay: Test A1 postemergence, blackgrass; conditions: Postemergence, 0 to 100 scale (0 no effect, 100 complete control)
In short: as §1

[8] = tested on: goosegrass (Eleusine indica); assay: Test A1 preemergence, goosegrass
In short: as §2

[9] = tested on: Foxtail, Giant (giant foxtail, Setaria faberi); assay: Test A1 preemergence, Foxtail, Giant
In short: as §2

[10] = tested on: barnyardgrass (Echinochloa crus-galli); assay: Test B1 flooded paddy test, barnyardgrass; conditions: 250 g ai/ha, Flood, applied to paddy water, 2-leaf stage, visually evaluated after 10 to 14 days
Text: (§4) A dash (-) response means no test result.

[11] = tested on: ragweed (common ragweed, Ambrosia artemisiifolia); assay: Test A1 postemergence, ragweed; conditions: Postemergence
In short: (§5)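 Plants were grown in a loam soil/sand blend, with test chemicals formulated in a non-phytotoxic solvent mixture containing surfactant. Preemergence treatment (corn) was a directed soil spray at planting. Postemergence treatment was applied to plants 2 to 10 cm tall at the one- to two-leaf stage.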

corn (Zea mays) [12] = assay: Test A1 postemergence, corn; conditions: Postemergence
In short: as §2

[13] = tested on: goosegrass (Eleusine indica); assay: Test A1 postemergence, goosegrass; conditions: Postemergence
In short: as §1

[14] = tested on: wheat (Triticum aestivum); assay: Test A1 preemergence, wheat
In short: as §2

[15] = tested on: blackgrass (Alopecurus myosuroides); assay: Test A1 preemergence, blackgrass
Text: as §3

[16] = tested on: Oat, Wild (wild oat, Avena fatua); assay: Test A1 postemergence, Oat, Wild; conditions: Postemergence
In short: as §5

[17] = tested on: Pigweed, Palmer (palmer amaranth, palmer pigweed, Amaranthus palmeri); assay: Test A1 postemergence, Pigweed, Palmer; conditions: Postemergence
In short: as §5

kochia (Bassia scoparia) [18] = assay: Test A1 preemergence, kochia
In short: as §2

soybean (Glycine max) [19] = assay: Test A1 preemergence, soybean
In short: as §2

rice (Oryza sativa) = assay: Test B1 flooded paddy test, rice; conditions: 250 g ai/ha, Flood, applied to paddy water, 2-leaf stage, visually evaluated after 10 to 14 days
Text: as §4

[20] = tested on: ragweed (common ragweed, Ambrosia artemisiifolia); assay: Test A1 preemergence, ragweed
In short: as §2

[21] = tested on: wheat (Triticum aestivum); assay: Test A1 postemergence, wheat; conditions: Postemergence
In short: as §1

[22] = tested on: ducksalad (Heteranthera limosa); assay: Test B1 flooded paddy test, ducksalad; conditions: 250 g ai/ha, Flood, applied to paddy water, 2-leaf stage, visually evaluated after 10 to 14 days
Text: as §4

corn (Zea mays) [23] = assay: Test A1 preemergence, corn
In short: as §5

[24] = tested on: Pigweed, Palmer (palmer amaranth, palmer pigweed, Amaranthus palmeri); assay: Test A1 preemergence, Pigweed, Palmer
In short: as §2

kochia (Bassia scoparia) [25] = assay: Test A1 postemergence, kochia; conditions: Postemergence
In short: as §1

[26] = tested on: Ryegrass, Italian (Italian ryegrass, Lolium multiflorum); assay: Test A1 postemergence, Ryegrass, Italian; conditions: Postemergence
In short: as §1

[27] = 31 g ai/ha, 0 to 100 scale (0 no effect, 100 complete control), 10 days
[28] = 31 g ai/ha, 0 to 100 scale (0 no effect, 100 complete control)
[29] = 125 g ai/ha, 0 to 100 scale, 0 no effect, 100 complete control

## Cc1c(NS(=O)(=O)C(F)(F)F)cc(C(=O)N2CCOCC2)c(C)c1Cl [Compound 290]
Soybean (Glycine max) [1]; [27]
  Plant response rating, Soybean: 0
Soybean (Glycine max) [1]; 125 g ai/ha, 0 to 100 scale
  Plant response rating, Soybean: 20
[2]; [28]
  Plant response rating, Ryegrass, Italian: 30
[2]; [29]
  Plant response rating, Ryegrass, Italian: 60
[3]; [28]
  Plant response rating, Oat, Wild: 0
[3]; [29]
  Plant response rating, Oat, Wild: 20
[4]; [27]
  Plant response rating, Galium: 80
[4]; 125 g ai/ha, 0 to 100 scale
  Plant response rating, Galium: 90
[5]; [27]
  Plant response rating, Foxtail, Giant: 0
[5]; 125 g ai/ha, 0 to 100 scale
  Plant response rating, Foxtail, Giant: 70
[6]; [27]
  Plant response rating, Horseweed: 70
[6]; 125 g ai/ha, 0 to 100 scale
  Plant response rating, Horseweed: 90
[7]; 31 g ai/ha, 10 days
  Plant response rating, Blackgrass: 0
[7]; 125 g ai/ha
  Plant response rating, Blackgrass: 0
[8]; [28]
  Plant response rating, Goosegrass: 70
[8]; [29]
  Plant response rating, Goosegrass: 90
[9]; [28]
  Plant response rating, Foxtail, Giant: 0
[9]; [29]
  Plant response rating, Foxtail, Giant: 90
[10]
  Plant response rating, Barnyardgrass (0 to 100 scale, 0 is no effect, 100 is complete control): 0
[11]; [27]
  Plant response rating, Ragweed: 60
[11]; 125 g ai/ha, 0 to 100 scale
  Plant response rating, Ragweed: 70
Corn (Zea mays) [12]; [27]
  Plant response rating, Corn: 0
Corn (Zea mays) [12]; 125 g ai/ha, 0 to 100 scale
  Plant response rating, Corn: 20
[13]; [27]
  Plant response rating, Goosegrass: 30
[13]; 125 g ai/ha, 0 to 100 scale
  Plant response rating, Goosegrass: 70
[14]; [28]
  Plant response rating, Wheat: 0
[14]; [29]
  Plant response rating, Wheat: 40
[15]; [28]
  Plant response rating, Blackgrass: 20
[15]; [29]
  Plant response rating, Blackgrass: 70
[16]; [27]
  Plant response rating, Oat, Wild: 0
[16]; 125 g ai/ha, 0 to 100 scale
  Plant response rating, Oat, Wild: 10
[17]; [27]
  Plant response rating, Pigweed, Palmer: 0
[17]; 125 g ai/ha, 0 to 100 scale
  Plant response rating, Pigweed, Palmer: 20
Kochia (Bassia scoparia) [18]; [28]
  Plant response rating, Kochia: 20
Kochia (Bassia scoparia) [18]; [29]
  Plant response rating, Kochia: 30
Soybean (Glycine max) [19]; [28]
  Plant response rating, Soybean: 0
Soybean (Glycine max) [19]; [29]
  Plant response rating, Soybean: 0
Rice (Oryza sativa)
  Plant response rating, Rice (0 to 100 scale, 0 is no effect, 100 is complete control): 0
[20]; [28]
  Plant response rating, Ragweed: 20
[20]; [29]
  Plant response rating, Ragweed: 60
[21]; [27]
  Plant response rating, Wheat: 0
[21]; 125 g ai/ha, 0 to 100 scale
  Plant response rating, Wheat: 60
[22]
  Plant response rating, Ducksalad (0 to 100 scale, 0 is no effect, 100 is complete control): 65
Corn (Zea mays) [23]; [28]
  Plant response rating, Corn: 0
Corn (Zea mays) [23]; [29]
  Plant response rating, Corn: 20
[24]; [28]
  Plant response rating, Pigweed, Palmer: 0
[24]; [29]
  Plant response rating, Pigweed, Palmer: 50
Kochia (Bassia scoparia) [25]; [27]
  Plant response rating, Kochia: 20
Kochia (Bassia scoparia) [25]; 125 g ai/ha, 0 to 100 scale
  Plant response rating, Kochia: 20
[26]; [27]
  Plant response rating, Ryegrass, Italian: 0
[26]; 125 g ai/ha, 0 to 100 scale
  Plant response rating, Ryegrass, Italian: 50
